Columns and labels:
Format in all cases: biochemical
PTPα = target: T1, PTPα (Homo sapiens, UniProt P18433); experiment: Phosphatase panel, pNPP assay; conditions: at 10 μM
T1 construct: The intracellular fragment of PTPa, LAR and CD45 containing both of the PTPase domains was cleaved off the fusion protein; GST (cleaved yes); made in house

Cdc25A = target: T2, Cdc25A (Homo sapiens, UniProt P30304); experiment: Phosphatase panel, pNPP assay; conditions: at 10 μM
T2 sequence (P30304 1-524): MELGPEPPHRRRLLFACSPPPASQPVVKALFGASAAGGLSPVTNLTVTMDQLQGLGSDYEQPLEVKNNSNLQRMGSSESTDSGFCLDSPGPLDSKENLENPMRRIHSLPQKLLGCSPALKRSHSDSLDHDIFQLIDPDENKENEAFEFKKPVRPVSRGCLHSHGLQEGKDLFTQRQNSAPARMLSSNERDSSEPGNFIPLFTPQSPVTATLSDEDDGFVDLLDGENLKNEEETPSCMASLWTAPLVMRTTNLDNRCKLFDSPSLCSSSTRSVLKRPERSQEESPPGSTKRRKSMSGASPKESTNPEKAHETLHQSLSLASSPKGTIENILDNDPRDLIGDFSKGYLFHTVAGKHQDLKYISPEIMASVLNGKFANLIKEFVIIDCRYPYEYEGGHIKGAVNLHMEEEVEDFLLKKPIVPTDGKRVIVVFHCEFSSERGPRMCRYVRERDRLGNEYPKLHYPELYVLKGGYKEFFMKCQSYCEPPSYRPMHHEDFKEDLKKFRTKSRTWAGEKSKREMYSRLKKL

PTP1B = target: T3, PTP1B (Homo sapiens, UniProt P18031); experiment: PTPase activity assay with pNPP substrate
T3 construct: PTP1B (residues 1-321) (22); made in house; host or cells: E. coli
T3 sequence (P18031 1-321): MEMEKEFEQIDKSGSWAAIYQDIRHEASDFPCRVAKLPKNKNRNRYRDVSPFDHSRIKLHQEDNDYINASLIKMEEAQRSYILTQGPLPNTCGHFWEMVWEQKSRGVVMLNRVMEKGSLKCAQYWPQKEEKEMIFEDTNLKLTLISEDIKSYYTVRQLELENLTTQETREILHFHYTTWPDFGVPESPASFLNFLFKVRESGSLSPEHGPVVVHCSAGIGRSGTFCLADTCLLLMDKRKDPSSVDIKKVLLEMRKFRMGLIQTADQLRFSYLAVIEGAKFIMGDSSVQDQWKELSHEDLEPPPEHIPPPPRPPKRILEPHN

SHP2 = target: T4, SHP2 (Homo sapiens, UniProt Q06124); experiment: Phosphatase panel, pNPP assay; conditions: 2 mM pNPP; read-out: Inhibition Potency, IC50
T4 construct: the catalytic domains of SHP1 and SHP2 were expressed and purified as (His)6-fusion proteins; (His)6; made in house
T4 sequence (Q06124 247-517 limits assumed): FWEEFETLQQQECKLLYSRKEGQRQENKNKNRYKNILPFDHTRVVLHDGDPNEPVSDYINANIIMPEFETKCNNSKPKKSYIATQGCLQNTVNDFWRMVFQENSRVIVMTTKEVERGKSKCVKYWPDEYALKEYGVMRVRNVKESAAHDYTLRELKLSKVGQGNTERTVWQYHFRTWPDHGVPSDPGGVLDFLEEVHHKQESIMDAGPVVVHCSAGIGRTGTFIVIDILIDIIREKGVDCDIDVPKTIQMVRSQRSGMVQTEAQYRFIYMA

PP2Cα = target: T5, PP2Cα (Homo sapiens, UniProt P35813); experiment: Phosphatase panel, pNPP assay; conditions: at 10 μM
T5 sequence (P35813 1-382): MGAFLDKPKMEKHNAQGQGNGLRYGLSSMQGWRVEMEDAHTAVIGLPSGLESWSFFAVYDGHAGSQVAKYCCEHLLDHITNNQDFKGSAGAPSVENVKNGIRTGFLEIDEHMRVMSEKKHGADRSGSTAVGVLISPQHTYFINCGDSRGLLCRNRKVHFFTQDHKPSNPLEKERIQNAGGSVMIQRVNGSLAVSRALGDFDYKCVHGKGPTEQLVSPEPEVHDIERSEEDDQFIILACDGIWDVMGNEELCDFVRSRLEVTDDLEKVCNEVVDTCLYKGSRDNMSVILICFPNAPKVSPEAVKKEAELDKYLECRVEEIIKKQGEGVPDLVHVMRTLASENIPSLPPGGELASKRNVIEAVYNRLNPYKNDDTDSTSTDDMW

Stp1 = target: T6, Stp1 (Schizosaccharomyces pombe, UniProt P41893); experiment: Phosphatase panel, pNPP assay; conditions: at 10 μM
T6 construct: made in house; host or cells: E. coli
T6 sequence (P41893 1-156): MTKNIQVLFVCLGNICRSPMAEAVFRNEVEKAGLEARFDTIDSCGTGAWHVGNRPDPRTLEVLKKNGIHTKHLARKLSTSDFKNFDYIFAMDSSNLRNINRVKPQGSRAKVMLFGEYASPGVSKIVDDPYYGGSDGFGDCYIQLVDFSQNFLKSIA

VHR = target: T7, VHR (Homo sapiens, UniProt P51452); experiment: Phosphatase panel, pNPP assay; conditions: at 10 μM
T7 construct: made in house; host or cells: E. coli

CD45 = target: T8, CD45 (Homo sapiens, UniProt P08575); experiment: Phosphatase panel, pNPP assay; conditions: at 10 μM
T8 construct: The intracellular fragment of PTPa, LAR and CD45 containing both of the PTPase domains was cleaved off the fusion protein; GST (cleaved yes); made in house
T8 sequence (P08575 599-1306 limits assumed): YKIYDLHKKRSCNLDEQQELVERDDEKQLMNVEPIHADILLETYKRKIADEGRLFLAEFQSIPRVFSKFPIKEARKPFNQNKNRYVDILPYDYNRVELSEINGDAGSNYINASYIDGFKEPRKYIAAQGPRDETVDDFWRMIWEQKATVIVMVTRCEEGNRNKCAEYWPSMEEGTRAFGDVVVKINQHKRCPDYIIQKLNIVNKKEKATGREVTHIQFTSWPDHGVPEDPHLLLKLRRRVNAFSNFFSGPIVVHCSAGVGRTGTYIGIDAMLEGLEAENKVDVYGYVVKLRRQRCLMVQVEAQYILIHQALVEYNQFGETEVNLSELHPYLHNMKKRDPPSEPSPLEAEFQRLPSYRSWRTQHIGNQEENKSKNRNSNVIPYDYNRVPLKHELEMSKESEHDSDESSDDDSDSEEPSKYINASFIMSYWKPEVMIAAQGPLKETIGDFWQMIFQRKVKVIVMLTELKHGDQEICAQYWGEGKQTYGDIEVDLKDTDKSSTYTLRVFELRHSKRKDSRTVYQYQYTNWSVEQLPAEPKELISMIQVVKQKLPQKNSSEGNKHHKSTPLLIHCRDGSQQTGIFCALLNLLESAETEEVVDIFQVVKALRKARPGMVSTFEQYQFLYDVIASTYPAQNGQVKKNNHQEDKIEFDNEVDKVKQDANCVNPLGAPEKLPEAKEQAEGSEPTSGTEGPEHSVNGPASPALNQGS

T7 sequence (P51452 whole entry, species assumed): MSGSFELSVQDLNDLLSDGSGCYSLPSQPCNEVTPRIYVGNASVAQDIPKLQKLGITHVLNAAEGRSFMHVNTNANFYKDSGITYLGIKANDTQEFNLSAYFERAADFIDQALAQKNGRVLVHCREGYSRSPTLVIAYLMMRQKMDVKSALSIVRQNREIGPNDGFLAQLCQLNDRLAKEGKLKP

NC(=O)C(Cc1ccc(C(F)(F)P(=O)(O)O)cc1)NC(=O)C(CC(=O)O)NC(=O)Cc1ccc(C(F)(F)P(=O)(O)O)cc1 (stereo not drawn) [Compound 40]
Inhibition Potency (PTPα): No inhibition at 10 μM
Inhibition Potency (Cdc25A): No inhibition at 10 μM
preference for PTP1B versus nearly all phosphatases examined (PTP1B; panel of Table 2): greater than three orders of magnitude
mode of inhibition (PTP1B; with respect to the substrate pNPP): competitive
IC50 (SHP2): 10 µM
Inhibition Potency (PP2Cα): No inhibition at 10 μM
Inhibition Potency (Stp1): No inhibition at 10 μM
Inhibition Potency (VHR): No inhibition at 10 μM
Inhibition Potency (CD45): No inhibition at 10 μM

— patent US20040191926A1 (priority 2001, published 2004)
